According to PubChem BioAssay (NCI):
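Five concentrations, 48 hours, 96-well plates. TGI denotes the concentration required for complete inhibition of growth.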

What was measured:
Test in all cases: NCI anticancer screen, dose series, 48 h
[1] = test system: CCRF-CEM leukemia
[2] = test system: HCC-2998 colon
[3] = test system: HCT-15 colon
[4] = test system: MOLT-4 leukemia
[5] = test system: M14 melanoma
[6] = test system: BT-549 breast
[7] = test system: KM12 colon
[8] = test system: HT29 colon
[9] = test system: SNB-75 CNS
[10] = test system: EKVX NSCLC
[11] = test system: NCI-H23 lung
[12] = test system: PC-3 prostate
[13] = test system: DU-145 prostate
[14] = test system: RXF 393 renal
[15] = test system: RPMI-8226 leukemia
[16] = test system: UACC-62 melanoma
[17] = test system: A549 NSCLC
[18] = test system: SN12C renal
[19] = test system: SW-620 colon
[20] = test system: NCI-H460 lung
[21] = test system: OVCAR-5 ovarian
[22] = test system: UACC-257 melanoma
[23] = test system: K-562 leukemia
[24] = test system: T-47D breast
[25] = test system: HS 578T breast
[26] = test system: UO-31 renal
[27] = test system: HCT-116 colon
[28] = test system: MALME-3M melanoma
[29] = test system: OVCAR-8 ovarian
[30] = test system: MCF7 breast
[31] = test system: TK-10 renal
[32] = test system: SK-MEL-28 melanoma
[33] = test system: SK-MEL-5 melanoma
[34] = test system: MDA-MB-435
[35] = test system: SR leukemia
[36] = test system: CAKI-1 renal
[37] = test system: SF-295 CNS
[38] = test system: SF-268 CNS
[39] = test system: OVCAR-4 ovarian
[40] = test system: U251 CNS
[41] = test system: LOX IMVI melanoma
[42] = test system: ACHN renal
[43] = test system: NCI/ADR-RES ovarian
[44] = test system: IGROV1 ovarian
[45] = test system: 786-0 renal
[46] = test system: COLO 205 colon
[47] = test system: SK-MEL-2 melanoma
[48] = test system: NCI-H522 lung
[49] = test system: HOP-62 NSCLC
[50] = test system: SNB-19 CNS
[51] = test system: SK-OV-3 ovarian

Measured: TGI

COC[C@H](Cc1ccccc1)N=Cc1ccccc1
> 100 µM: all assays above
